Results as given in ChEMBL document CHEMBL1649329, “Differential selection of single-step AmpC or efflux mutants of Pseudomonas aeruginosa by using cefepime, ceftazidime, or ceftobiprole” (2010).
Converted amounts (≈) assume the structure as drawn.

Legend:
Type in all cases: functional
Pseudomonas aeruginosa [1] = experiment: Antimicrobial activity against Pseudomonas aeruginosa OC 12070 expressing 11 fold elevated mexX expression and 10 fold elevated mexY expression by broth macrodilution method
Pseudomonas aeruginosa [2] = experiment: Antimicrobial activity against Pseudomonas aeruginosa OC 12070 expressing 27 fold elevated mexX expression and 49 fold elevated mexY expression by broth macrodilution method
Pseudomonas aeruginosa [3] = experiment: Antimicrobial activity against Pseudomonas aeruginosa OC 12070 expressing 7 fold elevated AmpC expression by broth macrodilution method
Pseudomonas aeruginosa [4] = experiment: Antimicrobial activity against Pseudomonas aeruginosa OC 12070 expressing 5 fold elevated AmpC expression by broth macrodilution method
Pseudomonas aeruginosa [5] = experiment: Antimicrobial activity against Pseudomonas aeruginosa OC 12070 expressing 10 fold elevated mexX expression and 23 fold elevated mexY expression by broth macrodilution method
Pseudomonas aeruginosa [6] = experiment: Antimicrobial activity against Pseudomonas aeruginosa OC 12070 expressing 151 fold elevated mexX expression and 127 fold elevated mexY expression by broth macrodilution method
Pseudomonas aeruginosa [7] = experiment: Antimicrobial activity against Pseudomonas aeruginosa OC 12070 expressing 12 fold elevated mexX expression and 25 fold elevated mexY expression by broth macrodilution method
Pseudomonas aeruginosa [8] = experiment: Antimicrobial activity against Pseudomonas aeruginosa OC 12070 expressing 107 fold elevated mexX expression and 155 fold elevated mexY expression by broth macrodilution method
Pseudomonas aeruginosa [9] = experiment: Antimicrobial activity against Pseudomonas aeruginosa OC 12070 expressing 36 fold elevated mexX expression and 39 fold elevated mexY expression by broth macrodilution method
Pseudomonas aeruginosa [10] = experiment: Antimicrobial activity against Pseudomonas aeruginosa OC 12070 expressing 65 fold elevated mexX expression and 106 fold elevated mexY expression by broth macrodilution method
Pseudomonas aeruginosa [11] = experiment: Antimicrobial activity against wild type Pseudomonas aeruginosa
Pseudomonas aeruginosa [12] = experiment: Antimicrobial activity against wild type Pseudomonas aeruginosa PAO1 by broth macrodilution method
Pseudomonas aeruginosa [13] = experiment: Antimicrobial activity against Pseudomonas aeruginosa OC 4351 by broth macrodilution method
Pseudomonas aeruginosa [14] = experiment: Antimicrobial activity against Pseudomonas aeruginosa OC 11053 by broth macrodilution method
Pseudomonas aeruginosa [15] = experiment: Antimicrobial activity against Pseudomonas aeruginosa OC 11492 by broth macrodilution method
Pseudomonas aeruginosa [16] = experiment: Antimicrobial activity against Pseudomonas aeruginosa OC 12070 by broth macrodilution method
Pseudomonas aeruginosa [17] = experiment: Antimicrobial activity against Pseudomonas aeruginosa OC 11678 by broth macrodilution method
Pseudomonas aeruginosa [18] = experiment: Antimicrobial activity against Pseudomonas aeruginosa OC 12261 by broth macrodilution method
Pseudomonas aeruginosa [19] = experiment: Antimicrobial activity against wild type Pseudomonas aeruginosa ATCC 27853 by broth macrodilution method
Pseudomonas aeruginosa [20] = experiment: Antimicrobial activity against Pseudomonas aeruginosa OC 11678 expressing 33 fold elevated AmpC expression by broth macrodilution method
Pseudomonas aeruginosa [21] = experiment: Antimicrobial activity against Pseudomonas aeruginosa OC 11678 expressing 34 fold elevated AmpC expression by broth macrodilution method
Pseudomonas aeruginosa [22] = experiment: Antimicrobial activity against Pseudomonas aeruginosa OC 11678 expressing 31 fold elevated AmpC expression by broth macrodilution method
Pseudomonas aeruginosa [23] = experiment: Antimicrobial activity against Pseudomonas aeruginosa OC 11678 expressing 30 fold elevated AmpC expression by broth macrodilution method
Pseudomonas aeruginosa [24] = experiment: Antimicrobial activity against Pseudomonas aeruginosa OC 11678 expressing 40 fold elevated AmpC expression by broth macrodilution method
Pseudomonas aeruginosa [25] = experiment: Antimicrobial activity against Pseudomonas aeruginosa OC 11678 expressing 36 fold elevated AmpC expression by broth macrodilution method
Pseudomonas aeruginosa [26] = experiment: Antimicrobial activity against Pseudomonas aeruginosa OC 11678 expressing 32 fold elevated AmpC expression by broth macrodilution method
Pseudomonas aeruginosa [27] = experiment: Antimicrobial activity against Pseudomonas aeruginosa OC 11678 expressing 29 fold elevated AmpC expression by broth macrodilution method
Pseudomonas aeruginosa [28] = experiment: Antimicrobial activity against Pseudomonas aeruginosa OC 11678 expressing 15 fold elevated AmpC expression by broth macrodilution method
Pseudomonas aeruginosa [29] = experiment: Antimicrobial activity against Pseudomonas aeruginosa OC 11678 expressing 9 fold elevated AmpC expression by broth macrodilution method
Pseudomonas aeruginosa [30] = experiment: microbe, parasite or virus in culture; conditions: OC 11678
Description: Antimicrobial activity against Pseudomonas aeruginosa OC 11678 expressing 27 fold elevated mexX expression and 16 fold elevated mexY expression by broth macrodilution method

Pseudomonas aeruginosa [31] = experiment: Antimicrobial activity against Pseudomonas aeruginosa OC 11678 expressing 31 fold elevated mexX expression and 17 fold elevated mexY expression by broth macrodilution method
Pseudomonas aeruginosa [32] = experiment: Antimicrobial activity against Pseudomonas aeruginosa OC 11678 expressing 71 fold elevated mexX expression and 43 fold elevated mexY expression by broth macrodilution method
Pseudomonas aeruginosa [33] = experiment: Antimicrobial activity against Pseudomonas aeruginosa OC 12070 expressing 37 fold elevated AmpC expression by broth macrodilution method
Pseudomonas aeruginosa [34] = experiment: Antimicrobial activity against Pseudomonas aeruginosa OC 12070 expressing 11 fold elevated AmpC expression by broth macrodilution method
Pseudomonas aeruginosa [35] = experiment: Antimicrobial activity against Pseudomonas aeruginosa OC 12070 expressing 8 fold elevated AmpC expression by broth macrodilution method

Structure (SMILES)	MIC (Pseudomonas aeruginosa [1])	MIC (Pseudomonas aeruginosa [2])	MIC (Pseudomonas aeruginosa [3])	MIC (Pseudomonas aeruginosa [4])	MIC (Pseudomonas aeruginosa [5])	MIC (Pseudomonas aeruginosa [6])	MIC (Pseudomonas aeruginosa [7])	MIC (Pseudomonas aeruginosa [8])	MIC (Pseudomonas aeruginosa [9])	MIC (Pseudomonas aeruginosa [10])	MIC50 (Pseudomonas aeruginosa [11])	MIC (Pseudomonas aeruginosa [12])	MIC (Pseudomonas aeruginosa [13])	MIC (Pseudomonas aeruginosa [14])	MIC (Pseudomonas aeruginosa [15])	MIC (Pseudomonas aeruginosa [16])	MIC (Pseudomonas aeruginosa [17])	MIC (Pseudomonas aeruginosa [18])	MIC (Pseudomonas aeruginosa [19])	MIC (Pseudomonas aeruginosa [20])	also measured
CO/N=C(\C(=O)N[C@@H]1C(=O)N2C(C(=O)[O-])=C(C[N+]3(C)CCCC3)CS[C@H]12)c1csc(N)n1 [CEFEPIME]	8 µg/mL (≈ 16.6 µM)	8 µg/mL (≈ 16.6 µM)	16 µg/mL (≈ 33.3 µM)	8 µg/mL (≈ 16.6 µM)	8 µg/mL (≈ 16.6 µM)	8 µg/mL (≈ 16.6 µM)	8 µg/mL (≈ 16.6 µM)	16 µg/mL (≈ 33.3 µM)	8 µg/mL (≈ 16.6 µM)	16 µg/mL (≈ 33.3 µM)	4 µg/mL (≈ 8.32 µM)	2 µg/mL (≈ 4.16 µM)	2 µg/mL (≈ 4.16 µM)	4 µg/mL (≈ 8.32 µM)	4 µg/mL (≈ 8.32 µM)	2 µg/mL (≈ 4.16 µM)	8 µg/mL (≈ 16.6 µM)	4 µg/mL (≈ 8.32 µM)	2 µg/mL (≈ 4.16 µM)	32 µg/mL (≈ 66.6 µM)	MIC (Pseudomonas aeruginosa [21]): 32 µg/mL (≈ 66.6 µM); MIC (Pseudomonas aeruginosa [22]): 32 µg/mL (≈ 66.6 µM); MIC (Pseudomonas aeruginosa [23]): 32 µg/mL (≈ 66.6 µM); MIC (Pseudomonas aeruginosa [24]): 32 µg/mL (≈ 66.6 µM); MIC (Pseudomonas aeruginosa [25]): 32 µg/mL (≈ 66.6 µM); MIC (Pseudomonas aeruginosa [26]): 32 µg/mL (≈ 66.6 µM); MIC (Pseudomonas aeruginosa [27]): 32 µg/mL (≈ 66.6 µM); MIC (Pseudomonas aeruginosa [28]): 32 µg/mL (≈ 66.6 µM); MIC (Pseudomonas aeruginosa [29]): 32 µg/mL (≈ 66.6 µM); MIC (Pseudomonas aeruginosa [30]): 8 µg/mL (≈ 16.6 µM); MIC (Pseudomonas aeruginosa [31]): 8 µg/mL (≈ 16.6 µM); MIC (Pseudomonas aeruginosa [32]): 32 µg/mL (≈ 66.6 µM); MIC (Pseudomonas aeruginosa [33]): 16 µg/mL (≈ 33.3 µM); MIC (Pseudomonas aeruginosa [34]): 16 µg/mL (≈ 33.3 µM); MIC (Pseudomonas aeruginosa [35]): 16 µg/mL (≈ 33.3 µM)
CC(C)(O/N=C(\C(=O)N[C@@H]1C(=O)N2C(C(=O)[O-])=C(C[n+]3ccccc3)CS[C@H]12)c1csc(N)n1)C(=O)O [CEFTAZIDIME]	2 µg/mL (≈ 3.66 µM)	4 µg/mL (≈ 7.32 µM)	64 µg/mL (≈ 117 µM)	16 µg/mL (≈ 29.3 µM)	8 µg/mL (≈ 14.6 µM)	8 µg/mL (≈ 14.6 µM)	4 µg/mL (≈ 7.32 µM)	16 µg/mL (≈ 29.3 µM)	4 µg/mL (≈ 7.32 µM)	16 µg/mL (≈ 29.3 µM)	2 µg/mL (≈ 3.66 µM)	1 µg/mL (≈ 1.83 µM)	1 µg/mL (≈ 1.83 µM)	1 µg/mL (≈ 1.83 µM)	2 µg/mL (≈ 3.66 µM)	2 µg/mL (≈ 3.66 µM)	4 µg/mL (≈ 7.32 µM)	4 µg/mL (≈ 7.32 µM)	2 µg/mL (≈ 3.66 µM)	128 µg/mL (≈ 234 µM)	MIC (Pseudomonas aeruginosa [21]): 128 µg/mL (≈ 234 µM); MIC (Pseudomonas aeruginosa [22]): 128 µg/mL (≈ 234 µM); MIC (Pseudomonas aeruginosa [23]): 128 µg/mL (≈ 234 µM); MIC (Pseudomonas aeruginosa [24]): 128 µg/mL (≈ 234 µM); MIC (Pseudomonas aeruginosa [25]): 64 µg/mL (≈ 117 µM); MIC (Pseudomonas aeruginosa [26]): 128 µg/mL (≈ 234 µM); MIC (Pseudomonas aeruginosa [27]): 128 µg/mL (≈ 234 µM); MIC (Pseudomonas aeruginosa [28]): 64 µg/mL (≈ 117 µM); MIC (Pseudomonas aeruginosa [29]): 64 µg/mL (≈ 117 µM); MIC (Pseudomonas aeruginosa [30]): 4 µg/mL (≈ 7.32 µM); MIC (Pseudomonas aeruginosa [31]): 4 µg/mL (≈ 7.32 µM); MIC (Pseudomonas aeruginosa [32]): 32 µg/mL (≈ 58.5 µM); MIC (Pseudomonas aeruginosa [33]): 32 µg/mL (≈ 58.5 µM); MIC (Pseudomonas aeruginosa [34]): 32 µg/mL (≈ 58.5 µM); MIC (Pseudomonas aeruginosa [35]): 32 µg/mL (≈ 58.5 µM)
Nc1nc(/C(=N/O)C(=O)N[C@@H]2C(=O)N3C(C(=O)O)=C(/C=C4\CCN([C@@H]5CCNC5)C4=O)CS[C@H]23)ns1 [CEFTOBIPROLE]	8 µg/mL (≈ 15 µM)	16 µg/mL (≈ 29.9 µM)	4 µg/mL (≈ 7.48 µM)	4 µg/mL (≈ 7.48 µM)	16 µg/mL (≈ 29.9 µM)	16 µg/mL (≈ 29.9 µM)	16 µg/mL (≈ 29.9 µM)	16 µg/mL (≈ 29.9 µM)	16 µg/mL (≈ 29.9 µM)	16 µg/mL (≈ 29.9 µM)	2 µg/mL (≈ 3.74 µM)	2 µg/mL (≈ 3.74 µM)	2 µg/mL (≈ 3.74 µM)	4 µg/mL (≈ 7.48 µM)	8 µg/mL (≈ 15 µM)	2 µg/mL (≈ 3.74 µM)	4 µg/mL (≈ 7.48 µM)	4 µg/mL (≈ 7.48 µM)	2 µg/mL (≈ 3.74 µM)	4 µg/mL (≈ 7.48 µM)	MIC (Pseudomonas aeruginosa [21]): 4 µg/mL (≈ 7.48 µM); MIC (Pseudomonas aeruginosa [22]): 4 µg/mL (≈ 7.48 µM); MIC (Pseudomonas aeruginosa [23]): 4 µg/mL (≈ 7.48 µM); MIC (Pseudomonas aeruginosa [24]): 4 µg/mL (≈ 7.48 µM); MIC (Pseudomonas aeruginosa [25]): 4 µg/mL (≈ 7.48 µM); MIC (Pseudomonas aeruginosa [26]): 4 µg/mL (≈ 7.48 µM); MIC (Pseudomonas aeruginosa [27]): 8 µg/mL (≈ 15 µM); MIC (Pseudomonas aeruginosa [28]): 4 µg/mL (≈ 7.48 µM); MIC (Pseudomonas aeruginosa [29]): 4 µg/mL (≈ 7.48 µM); MIC (Pseudomonas aeruginosa [30]): 8 µg/mL (≈ 15 µM); MIC (Pseudomonas aeruginosa [31]): 8 µg/mL (≈ 15 µM); MIC (Pseudomonas aeruginosa [32]): 32 µg/mL (≈ 59.9 µM); MIC (Pseudomonas aeruginosa [33]): 2 µg/mL (≈ 3.74 µM); MIC (Pseudomonas aeruginosa [34]): 4 µg/mL (≈ 7.48 µM); MIC (Pseudomonas aeruginosa [35]): 4 µg/mL (≈ 7.48 µM)
